What was measured:
[1] = target: T1, ATP-dependent translocase ABCB1 (Homo sapiens, UniProt P08183); test: TP_TRANSPORTER: transepithelial transport of tacrolimus (apical to basal) (Tacrolimus: 1.38-1.48uM) in MDR1-expressing LLC-GA5-COL150 cell; format: functional, cell-based; settings: pig
[2] = target: T1, ATP-dependent translocase ABCB1; test: TP_TRANSPORTER: transepithelial transport of digoxin (apical to basal) (Digoxin: 20-30uM) in MDR1-expressing LLC-GA5-COL150 cell; format: functional, cell-based; settings: pig

T1 sequence (P08183 whole entry): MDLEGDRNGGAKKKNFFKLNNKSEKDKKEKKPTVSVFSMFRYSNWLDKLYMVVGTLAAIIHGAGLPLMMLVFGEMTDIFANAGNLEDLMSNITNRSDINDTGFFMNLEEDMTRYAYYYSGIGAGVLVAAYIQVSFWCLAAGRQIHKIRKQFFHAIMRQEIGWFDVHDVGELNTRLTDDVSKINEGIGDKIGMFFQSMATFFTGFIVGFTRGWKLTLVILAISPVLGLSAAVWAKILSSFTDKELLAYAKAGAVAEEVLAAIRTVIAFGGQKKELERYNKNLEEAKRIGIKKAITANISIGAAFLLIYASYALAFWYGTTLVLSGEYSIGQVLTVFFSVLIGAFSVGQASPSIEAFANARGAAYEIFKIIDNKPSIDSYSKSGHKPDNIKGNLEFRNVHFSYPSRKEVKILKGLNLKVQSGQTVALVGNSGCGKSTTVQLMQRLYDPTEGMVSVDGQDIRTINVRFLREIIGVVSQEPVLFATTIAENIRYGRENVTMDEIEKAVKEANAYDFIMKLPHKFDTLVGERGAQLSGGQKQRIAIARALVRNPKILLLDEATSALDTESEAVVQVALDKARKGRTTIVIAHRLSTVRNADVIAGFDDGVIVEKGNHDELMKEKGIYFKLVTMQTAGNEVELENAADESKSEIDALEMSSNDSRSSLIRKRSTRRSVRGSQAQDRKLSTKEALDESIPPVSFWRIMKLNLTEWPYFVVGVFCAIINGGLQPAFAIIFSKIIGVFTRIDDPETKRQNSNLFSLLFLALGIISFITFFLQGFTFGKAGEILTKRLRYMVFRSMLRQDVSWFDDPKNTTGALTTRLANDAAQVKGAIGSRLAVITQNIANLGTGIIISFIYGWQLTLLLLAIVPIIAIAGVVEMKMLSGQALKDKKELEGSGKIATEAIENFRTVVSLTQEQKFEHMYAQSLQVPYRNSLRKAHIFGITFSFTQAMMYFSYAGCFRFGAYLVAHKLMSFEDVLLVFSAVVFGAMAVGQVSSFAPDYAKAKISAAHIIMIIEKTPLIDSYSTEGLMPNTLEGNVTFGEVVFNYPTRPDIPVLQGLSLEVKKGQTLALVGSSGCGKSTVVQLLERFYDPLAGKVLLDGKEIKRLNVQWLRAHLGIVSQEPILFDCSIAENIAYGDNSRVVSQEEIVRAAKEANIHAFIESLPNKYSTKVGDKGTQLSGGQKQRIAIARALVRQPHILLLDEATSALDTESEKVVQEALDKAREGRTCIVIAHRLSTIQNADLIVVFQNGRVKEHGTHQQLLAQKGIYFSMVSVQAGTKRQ

GRAPEFRUIT JUICE was tested. Which Activity [1] did it give?
Its Activity is “inhibitor [+]”.

And the Activity [2]?
Its Activity is “inhibitor [+]”.

For `CC[C@H]1OC(=O)[C@H](C)[C@@H](O[C@H]2C[C@@](C)(OC)[C@@H](O)[C@H](C)O2)[C@H](C)[C@@H](O[C@@H]2O[C@H](C)C[C@H](N(C)C)[C@H]2O)[C@](C)(OC)C[C@@H](C)C(=O)[C@H](C)[C@@H](O)[C@]1(C)O` [CLARITHROMYCIN], which Activity [2] is on record?
Its Activity is “inhibitor [+]”.

Which results are given for BANPEIYU?
Activity [1]: inhibitor [+]; Activity [2]: inhibitor [+]

Source: ChEMBL document CHEMBL2073837, “Inhibitory effects of pomelo on the metabolism of tacrolimus and the activities of CYP3A4 and P-glycoprotein” (Drug Metab Dispos, 2004)
